From patent publication US20110229411A1, “USE OF P2X7 PATHWAY FOR ASSESSING THE SENSITIVITY OF A SUBJECT TO A CANCER TREATMENT” (INSTITUT GUSTAVE ROUSSY, priority 2008, published 2011)

What was measured:
MCA205 cells = assay: Cell death induction for vaccination, FACS analysis of Annexin V+ DAPI+ cells; type: cell-based, mouse; details: MCA205, 1 μM mitoxantrone, 24 hours
Procedure: Anti cancer vaccination was assessed using a previously described setting (Casares et al., 2005; Obeid et al., 2007). CT26 cells were cultured with either PBS or 20 μM doxorubicin, and MCA205 with either PBS or 1 μM mitoxantrone for 24 h. All these treatments led to ˜50% of Annexin V^+ DAPI^+ cells, as assessed by FACS analysis at 24 hours. After careful washes, cells were resuspended in sterile PBS. CT26 cells were incubated in the presence or in the absence of antimycin A and deoxyglucose (2 μg/ml and 30 mM, respectively) for 20 min, or in the presence or in the absence of Oxi-ATP ([…]). After 3 washes, 3×10^6 dying CT26 cells (or 3×10^5 MCA205 cells) were injected subcutaneously into the left flank of mice. In some experiments, 100 μg of IL-1Ra (Anakinra) was injected along with the dying cells. Seven days later, mice were rechallenged into the right flank with 5×10^5 live CT26 cells (or, alternatively, 3.10^4 live MCA205 cells). Tumor growth was then monitored weekly.

EG7 cells = assay: ATP assays (extracellular and intracellular ATP, luciferin-luciferase) on oxaliplatin-treated tumor cells; type: cell-based, mouse
Procedure: FIG. 1: ATP release by dying tumor cells dictates the immunogenicity of cell death. FIG. 1a. Accumulation of ATP in the extracellular space following exposure of tumor cells to chemotherapy. EG7 were treated with oxaliplatin, and ATP release into the supernatant was monitored. FIG. 1b. […] EG7 were treated with oxaliplatin for 24 hours and subsequently with antimycin A and deoxyglucose (A/D) for 20 min. Data (means±SEM of triplicates) of one representative experiment out of three are depicted. FIG. 1c. Failure of dying tumor cells depleted from ATP to elicit an OVA specific immune response. Live or oxaliplatin-treated EG7 cells were injected into the footpad of C57B1/6 mice. Five days later, popliteal lymph node cells were recovered and restimulated with the OVA holoprotein for 72 hours before quantification of IFNγ secretion. The levels of IFNγ secretion between mice immunized with ATP-depleted or not depleted EG7 were compared in three independent experiments. FIG. 1d. Inhibition of purinergic receptors with oxidized ATP (oxiATP) abolishes T cell priming by oxaliplatin-treated EG7 cells. […] Five days later, the local immune response was measured as in (a). […]
Plates were read in a Fluostar luminometer (BMG Labtech).

EL4 thymoma tumors = assay: Chemotherapy of EL4 tumors established in mice; type: in vivo
Procedure: FIG. 17. The anti-cancer activity of oxaliplatin depends on P2X7 and the NALP3 inflammasome. FIG. 17a,b,c. Therapeutic efficacy of oxaliplatin on established tumors depends on the integrity of the immune system on the P2X7/NALP3/casp-1 axis. EL4 thymoma tumors were established in syngenic mice bearing the indicated genotypes (a-c) or injected with anti-CD8 antibody (a). When the tumor reached 70-90mm^2 in size, mice were either left untreated or were treated with oxaliplatin. Each treatment group included 5-6 mice (X±SEM), and each experiment was repeated three times with similar results. * p<0.05. d. Caspase 1 is required for the immune response promoted by oxaliplatin chemotherapy. EG7 tumors established in the thigh were treated with one systemic injection of oxaliplatin. Inguinal lymph node cells were harvested 5 days later, and the gangliocytes were restimulated in vitro. IFNγ secretion was assessed by ELISA. Results (means of triplicates ±SEM, n=3) are representative of one typical experiment out of three. ^*P<0.01. FIG. 17d. The efficacy of anthracyclines against established colon cancer is dependent on IL-1β. CT26 tumors established for 10 days in WT mice were treated with one local injection of doxorubicin in the absence or presence of neutralizing anti-IL-1β Ab (n=10/group, *p<0.05). FIG. 17e. A single-nucleotide polymorphism (SNP) in P2X7 (rs3751143) affects the long-term efficacy of conventional anti-cancer therapy in breast cancer patients. Comparative Kaplan-Meier estimates of time to metastasis in two groups of patients bearing the normal (Glu496Glu) or loss-of-function (Glu496Ala) P2X7 alleles. The time to metastatic progression was analyzed in 225 women with non-metastatic breast cancer who received adjuvant chemotherapy with anthracylines.
Wild type or loss-of-function C57BL/6 mice were injected s.c. with 10^6 EL4 cells into the right flank. Alternatively, wild-type BALB/c mice were injected with 5.10^5 CT26 cells into the right flank. Mice were then randomly assigned to treatment groups of 4-6 mice each. The tumor surface was monitored using a caliper. When tumor size reached 70-90 mm^2 for EL4 (9-12 days post-injection) or 60-80 mm^2 for CT26 (8-10 days post-injection), mice received chemotherapy (Apetoh et al., 2007). Mice bearing EL4 tumors were injected with oxaliplatin (5 mg/kg i.p), while mice bearing CT26 tumors were injected with doxorubicin (50 μl, 4 mM i.t). In some experiments, CT26 tumor-bearing mice received two injections (on day 0 and day 2 after the commencement of chemotherapeutic treatment) of IL-1Ra (McIntyre et al., 1991) (100 μg), anti-IL-1 antibody (100 μg) or hamster serum as a control.

OT-1 CD8+ T cells = assay: In vitro stimulation of OT-1 cells by BM-DC loaded with oxaliplatin-treated EG7; type: cell-based, mouse; details: rIL-1β 100 ng/ml or IL-12 10 ng/ml added to cocultures
Procedure: FIG. 15. IL-1β-dependent CTL priming by dying tumor cells in vitro and in vivo. FIG. 15a. MyD88 is required at the level of the host but not that of the APC. DC from WT mice were first loaded with antigen (OVA holoprotein with C/P adjuvant, live or oxaliplatin-treated EG7 cells) and then injected into the footpad of into WT or MyD88^−/− recipients (n=6 mice/group). Five days later, the local immune response was measured as in FIG. 2d,e. Results of one typical experiment out of three are depicted. FIG. 15b. Casp-1 and IL-1β-dependent OT-I priming in vitro. The differentiation of IFNγ producing CD8^+ OT-1 cells was induced by incubating naïve OVA-specific TCR transgenic OT-1 lymphocytes with syngeneic BM-DC (derived from WT or Casp-1^−/− mice) that were loaded with oxaliplatin-treated EG7 for 2 days in vitro. […] Exogenous addition of rIL-1β (100 ng/ml) or IL-12 (10 ng/ml) to cocultures of Casp-1^−/− DC loaded with dying tumor cells and incubated with OT1 restored T cell priming. […] FIG. 15c. Specific and direct polarizing effects of IL-1β on T lymphocytes in vitro. Purified CD3^+ CD8^+ T cells derived from naïve WT mice were stimulated with anti-CD3 and anti-CD28 mAb for 5 days in the presence of the indicated cytokines (10 ng/ml for IL-12p70, 100 ng/ml for IL-1β, IL-6 and TNFα) -and IFNγ production was measured as in FIG. 3b. FIG. 15d. […]

[1] = test system: T cell priming for IFNγ production; assay: Priming assay: dying EG7 cells injected into the footpad, IFNγ secretion of restimulated popliteal lymph node cells; type: in vivo, mice; details: cytokine co-injected with oxaliplatin-treated EG7: rIL-1β 250 ng, rIL-12 50 ng, rIL-6 250 ng per footpad
Procedure: 1.10^6 CT26, EG7, or B16F10 cells were either left untreated or treated with doxorubicin (20 μM) or oxaliplatin (5 μg/ml) for 24 h. Cells were then injected into the footpad of syngenic mice. In some experiments, 20 or 100 μg of IL-1Ra (Anakinra) or 250 ng of recombinant murine IL-1β (or 250 ng of IL-6 or 50 ng of IL-12) was injected along with dying tumor cells into the footpad of mice. Alternatively, DC were cocultured with EG7 cells for 2 hours, followed by the purification of CD11c^+ cells with anti-CD11c mAb coupled to magnetic beads (Miltenyi Biotec, Paris, France) and injection of these purified DC into the footpad. Five days later, gangliocytes from popliteal lymph nodes were harvested, seeded in 96 U-well plates (3.10^5 cells per well), and restimulated with 1 mg/ml OVA protein. Restimulation with MCA205 or CT26 cells was performed using 3×10^4 tumor cells killed by 5 min heating at 42° C. followed by 1 cycle of freezing/thawing in liquid nitrogen. For B16F10, restimulation was achieved using gp100 peptide as previously described (Overwijk et al., 1998). As a positive control of T cell priming, mice were injected with OVA protein (1 mg) (or gp100 for B16F10) and the association of CpG (10 μg) and Poly I:C (5 μg). For CT26 priming experiments, cell lysate plus LPS (250 ng) was used as a positive control. Supernatants were harvested 72 hours later, and IFNγ secretion was assessed by ELISA. Alternatively, cells were stimulated with PMA (10 ng/ml) and ionomycin (1 μg/ml) for 1 h, followed by the addition of brefeldin A (10 μg/ml for 6 h at 37° C.) (Apetoh et al., 2007), surface staining with Abs specific for CD3, CD4 or CD8, fixation and permeabilization (Cytofix/cytoperm kit) and then labeled with antibodies specific for IFNγ. Immunofluorescence was analyzed on a LSRII flow cytometer (BD Biosciences) with FACSDiva software.

With `O=C1c2c(O)ccc(O)c2C(=O)c2c(NCCNCCO)ccc(NCCNCCO)c21` [mitoxantrone] the “Annexin V+ DAPI+ cells” value (MCA205 cells) was roughly 50%.

With `O=C1[O][Pt]2([NH][C@@H]3CCCC[C@H]3[NH]2)[O]C1=O` [oxaliplatin] the “intracellular ATP” value (EG7 cells; EG7 treated with oxaliplatin for 24 hours) was “Decrease of intracellular ATP”, the “release of ATP into the supernatant” value (EG7 cells; EL4 thymomas and EG7 cells, oxaliplatin 5 μg/ml, 0-24 hours) was “induced the release of ATP” and the “response of EL4 tumors to oxaliplatin” value (EL4 thymoma tumors; Casp1−/− mice versus WT controls) was “responded less efficiently”. The “therapeutic efficacy on established EL4 tumors” value (“therapeutic efficacy” below) (EL4 thymoma tumors; IfnγR1−/− mice) was “lost its therapeutic efficacy”, the “therapeutic efficacy” value (EL4 thymoma tumors; Il-12Rβ2−/− mice (and WT)) was “remained efficient” and the “response of EL4 tumors to oxaliplatin” value (EL4 thymoma tumors; Nalp3−/− mice versus WT controls) was “responded less efficiently”. The “response of EL4 tumors to oxaliplatin” value (EL4 thymoma tumors; P2X7−/− mice versus WT controls) was “responded less efficiently”, the “therapeutic efficacy” value (EL4 thymoma tumors; T and B cell-deficient rag-2−/− mice) was “lost its therapeutic efficacy” and the “therapeutic efficacy” value (EL4 thymoma tumors; T cell-deficient nu/nu mice) was “lost its therapeutic efficacy”. The “control of EL4 tumor growth” value (EL4 thymoma tumors; immunocompetent WT mice, oxaliplatin 5 mg/kg i.p.) was “efficient in controlling EL4 tumor growth” and the “therapeutic efficacy” value (EL4 thymoma tumors; mice depleted from CD8+ T cells) was “lost its therapeutic efficacy”.

B1: IL-12: recombinant mouse IL-12 from R&D Systems (protein, UniProt P43431 23-215; P43432 23-335, looked up)
Interleukin-12 subunit alpha: RVIPVSGPARCLSQSRNLLKTTDDMVKTAREKLKHYSCTAEDIDHEDITRDQTSTLKTCLPLELHKNESCLATRETSSTTRGSCLPPQKTSLMMTLCLGSIYEDLKMYQTEFQAINAALQNHNHQQIILDKGMLVAIDELMQSLNHNGETLRQKPPVGEADPYRVKMKLCILLHAFSTRVVTINRVMGYLSSA
Interleukin-12 subunit beta: MWELEKDVYVVEVDWTPDAPGETVNLTCDTPEEDDITWTSDQRHGVIGSGKTLTITVKEFLDAGQYTCHKGGETLSHSHLLLHKKENGIWSTEILKNFKNKTFLKCEAPNYSGRFTCSWLVQRNMDLKFNIKSSSSSPDSRAVTCGMASLSAEKVTLDQRDYEKYSVSCQEDVTCPTAEETLPIELALEARQQNKYENYSTSFFIRDIIKPDPPKNLQMKPLKNSQVEVSWEYPDSWSTPHSYFSLKFFVRIQRKKEKMKETEEGCNQKGAFLVEKTSTEVQCKGGNVCVQAQDRYYNSSCSKWACVPCRVRS
For B1, the “priming capacity of Casp-1−/− DC for OT-1 cells (IFNγ)” value (OT-1 CD8+ T cells) was “restored the priming capacity” and the “T cell priming in Nalp3−/− or Casp1−/− mice” value [1] was “restored deficient T cell priming”.
